From PMC7156458, “Synthetic biology based construction of biological activity-related library of fungal decalin-containing diterpenoid pyrones” (Nature Communications, 2020)

Biological target: Aβ42 (Homo sapiens, UniProt P05067)
Test: Th-T (thioflavin-T) assay of Aβ42 aggregation
Type: biochemical
Details: for Th-T fluorescence of Aβ42 with compound, mean of three wells (Fig. 7a source data): concentration 50, unit not given

Chain of Aβ42 (P05067 672-713): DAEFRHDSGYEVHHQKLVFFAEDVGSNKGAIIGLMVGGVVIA

## C=C1CCC2C(C)(CCC=C(C)C)C(O)CCC2(C)C1Cc1c(OC)oc(CO)c(C)c1=O (stereo not drawn) [Compound 12]
time-course reading M143
  Th-T fluorescence of Aβ42 with compound, mean of three wells (Fig. 7a source data): 1.6964
time-course reading M144
  Th-T fluorescence of Aβ42 with compound, mean of three wells (Fig. 7a source data): 1.681
time-course reading M145
  Th-T fluorescence of Aβ42 with compound, mean of three wells (Fig. 7a source data): 1.696
Head suffix _10 (concentration 10), reading M63
  Th-T fluorescence of Aβ42 (sheet Fig. 7a), mean of three wells: 3.408
Head suffix _10 (concentration 10), reading M64
  Th-T fluorescence of Aβ42 (sheet Fig. 7a), mean of three wells: 3.415
Head suffix _10 (concentration 10), reading M65
  Th-T fluorescence of Aβ42 (sheet Fig. 7a), mean of three wells: 3.397
Head suffix _10 (concentration 10), reading M66
  Th-T fluorescence of Aβ42 (sheet Fig. 7a), mean of three wells: 3.3918
Head suffix _10 (concentration 10), reading M67
  Th-T fluorescence of Aβ42 (sheet Fig. 7a), mean of three wells: 3.364
Head suffix _10 (concentration 10), reading M68
  Th-T fluorescence of Aβ42 (sheet Fig. 7a), mean of three wells: 3.364
Head suffix _10 (concentration 10), reading M69
  Th-T fluorescence of Aβ42 (sheet Fig. 7a), mean of three wells: 3.344
Head suffix _10 (concentration 10), reading M70
  Th-T fluorescence of Aβ42 (sheet Fig. 7a), mean of three wells: 3.357
Head suffix _10 (concentration 10), reading M71
  Th-T fluorescence of Aβ42 (sheet Fig. 7a), mean of three wells: 3.333
Head suffix _10 (concentration 10), reading M72
  Th-T fluorescence of Aβ42 (sheet Fig. 7a), mean of three wells: 3.332
Head suffix _10 (concentration 10), reading M73
  Th-T fluorescence of Aβ42 (sheet Fig. 7a), mean of three wells: 3.302
Head suffix _10 (concentration 10), reading M74
  Th-T fluorescence of Aβ42 (sheet Fig. 7a), mean of three wells: 3.307
Head suffix _10 (concentration 10), reading M75
  Th-T fluorescence of Aβ42 (sheet Fig. 7a), mean of three wells: 3.295
Head suffix _10 (concentration 10), reading M76
  Th-T fluorescence of Aβ42 (sheet Fig. 7a), mean of three wells: 3.265
Head suffix _10 (concentration 10), reading M77
  Th-T fluorescence of Aβ42 (sheet Fig. 7a), mean of three wells: 3.239
Head suffix _10 (concentration 10), reading M78
  Th-T fluorescence of Aβ42 (sheet Fig. 7a), mean of three wells: 3.245
Head suffix _10 (concentration 10), reading M79
  Th-T fluorescence of Aβ42 (sheet Fig. 7a), mean of three wells: 3.216
Head suffix _10 (concentration 10), reading M80
  Th-T fluorescence of Aβ42 (sheet Fig. 7a), mean of three wells: 3.214
Head suffix _10 (concentration 10), reading M81
  Th-T fluorescence of Aβ42 (sheet Fig. 7a), mean of three wells: 3.199
Head suffix _10 (concentration 10), reading M82
  Th-T fluorescence of Aβ42 (sheet Fig. 7a), mean of three wells: 3.17
Head suffix _10 (concentration 10), reading M83
  Th-T fluorescence of Aβ42 (sheet Fig. 7a), mean of three wells: 3.151
Head suffix _10 (concentration 10), reading M84
  Th-T fluorescence of Aβ42 (sheet Fig. 7a), mean of three wells: 3.157
Head suffix _20 (concentration 20), reading M63
  Th-T fluorescence of Aβ42 (sheet Fig. 7a), mean of three wells: 2.111
Head suffix _20 (concentration 20), reading M64
  Th-T fluorescence of Aβ42 (sheet Fig. 7a), mean of three wells: 2.103
Head suffix _20 (concentration 20), reading M65
  Th-T fluorescence of Aβ42 (sheet Fig. 7a), mean of three wells: 2.121
Head suffix _20 (concentration 20), reading M66
  Th-T fluorescence of Aβ42 (sheet Fig. 7a), mean of three wells: 2.113
Head suffix _20 (concentration 20), reading M67
  Th-T fluorescence of Aβ42 (sheet Fig. 7a), mean of three wells: 2.119
Head suffix _20 (concentration 20), reading M68
  Th-T fluorescence of Aβ42 (sheet Fig. 7a), mean of three wells: 2.108
Head suffix _20 (concentration 20), reading M69
  Th-T fluorescence of Aβ42 (sheet Fig. 7a), mean of three wells: 2.09
Head suffix _20 (concentration 20), reading M70
  Th-T fluorescence of Aβ42 (sheet Fig. 7a), mean of three wells: 2.126
Head suffix _20 (concentration 20), reading M71
  Th-T fluorescence of Aβ42 (sheet Fig. 7a), mean of three wells: 2.116
Head suffix _20 (concentration 20), reading M72
  Th-T fluorescence of Aβ42 (sheet Fig. 7a), mean of three wells: 2.113
Head suffix _20 (concentration 20), reading M73
  Th-T fluorescence of Aβ42 (sheet Fig. 7a), mean of three wells: 2.112
Head suffix _20 (concentration 20), reading M74
  Th-T fluorescence of Aβ42 (sheet Fig. 7a), mean of three wells: 2.11
Head suffix _20 (concentration 20), reading M75
  Th-T fluorescence of Aβ42 (sheet Fig. 7a), mean of three wells: 2.104
Head suffix _20 (concentration 20), reading M76
  Th-T fluorescence of Aβ42 (sheet Fig. 7a), mean of three wells: 2.0857
Head suffix _20 (concentration 20), reading M77
  Th-T fluorescence of Aβ42 (sheet Fig. 7a), mean of three wells: 2.081
Head suffix _20 (concentration 20), reading M78
  Th-T fluorescence of Aβ42 (sheet Fig. 7a), mean of three wells: 2.114
Head suffix _20 (concentration 20), reading M79
  Th-T fluorescence of Aβ42 (sheet Fig. 7a), mean of three wells: 2.113
Head suffix _20 (concentration 20), reading M80
  Th-T fluorescence of Aβ42 (sheet Fig. 7a), mean of three wells: 2.11
Head suffix _20 (concentration 20), reading M81
  Th-T fluorescence of Aβ42 (sheet Fig. 7a), mean of three wells: 2.089
Head suffix _20 (concentration 20), reading M82
  Th-T fluorescence of Aβ42 (sheet Fig. 7a), mean of three wells: 2.121
Head suffix _20 (concentration 20), reading M83
  Th-T fluorescence of Aβ42 (sheet Fig. 7a), mean of three wells: 2.116
Head suffix _20 (concentration 20), reading M84
  Th-T fluorescence of Aβ42 (sheet Fig. 7a), mean of three wells: 2.082
Head suffix _50 (concentration 50), reading M63
  Th-T fluorescence of Aβ42 (sheet Fig. 7a), mean of three wells: 1.459
Head suffix _50 (concentration 50), reading M64
  Th-T fluorescence of Aβ42 (sheet Fig. 7a), mean of three wells: 1.462
Head suffix _50 (concentration 50), reading M65
  Th-T fluorescence of Aβ42 (sheet Fig. 7a), mean of three wells: 1.426
Head suffix _50 (concentration 50), reading M66
  Th-T fluorescence of Aβ42 (sheet Fig. 7a), mean of three wells: 1.435
Head suffix _50 (concentration 50), reading M67
  Th-T fluorescence of Aβ42 (sheet Fig. 7a), mean of three wells: 1.458
Head suffix _50 (concentration 50), reading M68
  Th-T fluorescence of Aβ42 (sheet Fig. 7a), mean of three wells: 1.453
Head suffix _50 (concentration 50), reading M69
  Th-T fluorescence of Aβ42 (sheet Fig. 7a), mean of three wells: 1.447
Head suffix _50 (concentration 50), reading M70
  Th-T fluorescence of Aβ42 (sheet Fig. 7a), mean of three wells: 1.435
Head suffix _50 (concentration 50), reading M71
  Th-T fluorescence of Aβ42 (sheet Fig. 7a), mean of three wells: 1.445
Head suffix _50 (concentration 50), reading M72
  Th-T fluorescence of Aβ42 (sheet Fig. 7a), mean of three wells: 1.442
